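Growth conditions: 96-well plates. Treatment: test compound, 48 hours, 5 concentrations. Analysis: linear interpolation between bracketing concentrations; unreached endpoints set to highest concentration. GI50 = concentration required for 50% inhibition of growth. TGI: concentration producing complete growth inhibition.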
Legend:
Experiment in all cases: NCI-60 cell line screen, 48 h
PC-3 prostate = system: PC-3 prostate
SW-620 colon = system: SW-620 colon
COLO 205 colon = system: COLO 205 colon
A549 NSCLC = system: A549 NSCLC
HOP-92 NSCLC = system: HOP-92 NSCLC
KM12 colon = system: KM12 colon
NCI-H460 lung = system: NCI-H460 lung
SF-539 CNS = system: SF-539 CNS
SNB-19 CNS = system: SNB-19 CNS
NCI-H226 lung = system: NCI-H226 lung
MDA-MB-231 breast = system: MDA-MB-231 breast
HL-60(TB) leukemia = system: HL-60(TB) leukemia
DU-145 prostate = system: DU-145 prostate
SR leukemia = system: SR leukemia
SN12C renal = system: SN12C renal
HCC-2998 colon = system: HCC-2998 colon
HOP-62 NSCLC = system: HOP-62 NSCLC
NCI-H522 lung = system: NCI-H522 lung
BT-549 breast = system: BT-549 breast
SK-MEL-5 melanoma = system: SK-MEL-5 melanoma
MDA-MB-468 breast = system: MDA-MB-468 breast
A498 renal = system: A498 renal
RPMI-8226 leukemia = system: RPMI-8226 leukemia
IGROV1 ovarian = system: IGROV1 ovarian
HCT-116 colon = system: HCT-116 colon
CCRF-CEM leukemia = system: CCRF-CEM leukemia
UO-31 renal = system: UO-31 renal
786-0 renal = system: 786-0 renal
HCT-15 colon = system: HCT-15 colon
MDA-MB-435 = system: MDA-MB-435
CAKI-1 renal = system: CAKI-1 renal
HS 578T breast = system: HS 578T breast
MCF7 breast = system: MCF7 breast
SK-MEL-28 melanoma = system: SK-MEL-28 melanoma
OVCAR-5 ovarian = system: OVCAR-5 ovarian
SF-268 CNS = system: SF-268 CNS
TK-10 renal = system: TK-10 renal
T-47D breast = system: T-47D breast
RXF 393 renal = system: RXF 393 renal
LOX IMVI melanoma = system: LOX IMVI melanoma
UACC-62 melanoma = system: UACC-62 melanoma
NCI-H23 lung = system: NCI-H23 lung
SK-MEL-2 melanoma = system: SK-MEL-2 melanoma
ACHN renal = system: ACHN renal
U251 CNS = system: U251 CNS
SF-295 CNS = system: SF-295 CNS
K-562 leukemia = system: K-562 leukemia
OVCAR-3 ovarian = system: OVCAR-3 ovarian
OVCAR-8 ovarian = system: OVCAR-8 ovarian
SK-OV-3 ovarian = system: SK-OV-3 ovarian
MOLT-4 leukemia = system: MOLT-4 leukemia
MALME-3M melanoma = system: MALME-3M melanoma
NCI/ADR-RES ovarian = system: NCI/ADR-RES ovarian
EKVX NSCLC = system: EKVX NSCLC
UACC-257 melanoma = system: UACC-257 melanoma
SNB-75 CNS = system: SNB-75 CNS
OVCAR-4 ovarian = system: OVCAR-4 ovarian
HT29 colon = system: HT29 colon
M14 melanoma = system: M14 melanoma

`COc1ccc(-c2cc(C(=O)N=Nc3c(O)[nH]c4ccccc34)c3ccccc3n2)cc1` showed a GI50 (PC-3 prostate) of 5.2 µM, a TGI (PC-3 prostate) of 27.4 µM and a GI50 (SW-620 colon) of 3.91 µM. The TGI (SW-620 colon) was 17.5 µM, the GI50 (COLO 205 colon) was 11.6 µM and the TGI (COLO 205 colon) was 26.6 µM. It also gave a GI50 (A549 NSCLC) of 2.08 µM, a TGI (A549 NSCLC) of 4.78 µM and a GI50 (HOP-92 NSCLC) of 3.26 µM. The TGI (HOP-92 NSCLC) was 16.7 µM, the GI50 (KM12 colon) was 11.1 µM and the TGI (KM12 colon) was 28.3 µM. It also gave a GI50 (NCI-H460 lung) of 3.32 µM, a TGI (NCI-H460 lung) of 11.4 µM and a GI50 (SF-539 CNS) of 3.2 µM. It also gave a TGI (SF-539 CNS) of 10.2 µM, a GI50 (SNB-19 CNS) of 11 µM and a TGI (SNB-19 CNS) of 23 µM. The GI50 (NCI-H226 lung) was 4.1 µM, the TGI (NCI-H226 lung) was 19.4 µM and the GI50 (MDA-MB-231 breast) was 2.8 µM. The TGI (MDA-MB-231 breast) was 10.2 µM, the GI50 (HL-60(TB) leukemia) was 13.1 µM and the TGI (HL-60(TB) leukemia) was > 100 µM. For the same compound, the GI50 (DU-145 prostate) was 3.27 µM, the TGI (DU-145 prostate) was 12.1 µM and the GI50 (SR leukemia) was 4.05 µM. For the same compound, the TGI (SR leukemia) was > 100 µM, the GI50 (SN12C renal) was 11.3 µM and the TGI (SN12C renal) was 24.4 µM. The GI50 (HCC-2998 colon) was 3.87 µM, the TGI (HCC-2998 colon) was 13.1 µM and the GI50 (HOP-62 NSCLC) was 4.19 µM. The TGI (HOP-62 NSCLC) was 17.8 µM, the GI50 (NCI-H522 lung) was 1.88 µM and the TGI (NCI-H522 lung) was 4.71 µM. For the same compound, the GI50 (BT-549 breast) was 14.5 µM, the TGI (BT-549 breast) was 29 µM and the GI50 (SK-MEL-5 melanoma) was 12.1 µM. It also gave a TGI (SK-MEL-5 melanoma) of 25 µM, a GI50 (MDA-MB-468 breast) of 4.94 µM and a TGI (MDA-MB-468 breast) of 17.3 µM. It also gave a GI50 (A498 renal) of 21.4 µM, a TGI (A498 renal) of 38.6 µM and a GI50 (RPMI-8226 leukemia) of 9.32 µM. The TGI (RPMI-8226 leukemia) was > 100 µM, the GI50 (IGROV1 ovarian) was 5.07 µM and the TGI (IGROV1 ovarian) was 18.3 µM. The GI50 (HCT-116 colon) was 3.18 µM, the TGI (HCT-116 colon) was 10.7 µM and the GI50 (CCRF-CEM leukemia) was 9.06 µM. The TGI (CCRF-CEM leukemia) was > 100 µM, the GI50 (UO-31 renal) was 6 µM and the TGI (UO-31 renal) was 20.1 µM. The GI50 (786-0 renal) was 6.88 µM, the TGI (786-0 renal) was 20.8 µM and the GI50 (HCT-15 colon) was 10.3 µM. It also gave a TGI (HCT-15 colon) of 24.7 µM, a GI50 (MDA-MB-435) of 3.04 µM and a TGI (MDA-MB-435) of 12.1 µM. The GI50 (CAKI-1 renal) was 2.56 µM, the TGI (CAKI-1 renal) was 11 µM and the GI50 (HS 578T breast) was 14 µM. For the same compound, the TGI (HS 578T breast) was 65.7 µM, the GI50 (MCF7 breast) was 10.7 µM and the TGI (MCF7 breast) was 26.3 µM. For the same compound, the GI50 (SK-MEL-28 melanoma) was 4.26 µM, the TGI (SK-MEL-28 melanoma) was 14.7 µM and the GI50 (OVCAR-5 ovarian) was 5.75 µM. For the same compound, the TGI (OVCAR-5 ovarian) was 18.6 µM, the GI50 (SF-268 CNS) was 4.43 µM and the TGI (SF-268 CNS) was 20.8 µM. It also gave a GI50 (TK-10 renal) of 17.9 µM, a TGI (TK-10 renal) of 32.9 µM and a GI50 (T-47D breast) of 8.61 µM. The TGI (T-47D breast) was 27.2 µM, the GI50 (RXF 393 renal) was 4.16 µM and the TGI (RXF 393 renal) was 15.4 µM. For the same compound, the GI50 (LOX IMVI melanoma) was 6.17 µM, the TGI (LOX IMVI melanoma) was 19.3 µM and the GI50 (UACC-62 melanoma) was 9.93 µM. For the same compound, the TGI (UACC-62 melanoma) was 21.8 µM, the GI50 (NCI-H23 lung) was 2.91 µM and the TGI (NCI-H23 lung) was 11.4 µM. The GI50 (SK-MEL-2 melanoma) was 16 µM, the TGI (SK-MEL-2 melanoma) was 35.2 µM and the GI50 (ACHN renal) was 11 µM. The TGI (ACHN renal) was 22.9 µM, the GI50 (U251 CNS) was 2.34 µM and the TGI (U251 CNS) was 6.37 µM. For the same compound, the GI50 (SF-295 CNS) was 11.2 µM, the TGI (SF-295 CNS) was 24 µM and the GI50 (K-562 leukemia) was 4.53 µM. The TGI (K-562 leukemia) was > 100 µM, the GI50 (OVCAR-3 ovarian) was 3.63 µM and the TGI (OVCAR-3 ovarian) was 14.4 µM. For the same compound, the GI50 (OVCAR-8 ovarian) was 3.13 µM, the TGI (OVCAR-8 ovarian) was 12.4 µM and the GI50 (SK-OV-3 ovarian) was 11.6 µM. For the same compound, the TGI (SK-OV-3 ovarian) was 24.8 µM, the GI50 (MOLT-4 leukemia) was 4.93 µM and the TGI (MOLT-4 leukemia) was > 100 µM. It also gave a GI50 (MALME-3M melanoma) of 3.14 µM, a TGI (MALME-3M melanoma) of 9.99 µM and a GI50 (NCI/ADR-RES ovarian) of 3.48 µM. It also gave a TGI (NCI/ADR-RES ovarian) of 15 µM, a TGI (EKVX NSCLC) of 22.5 µM and a GI50 (UACC-257 melanoma) of 9.71 µM. The TGI (UACC-257 melanoma) was 24.1 µM, the GI50 (SNB-75 CNS) was 1.94 µM and the TGI (SNB-75 CNS) was 15.1 µM. The GI50 (OVCAR-4 ovarian) was 5.24 µM, the TGI (OVCAR-4 ovarian) was 20.9 µM and the GI50 (HT29 colon) was 3.59 µM. For the same compound, the TGI (HT29 colon) was 12.8 µM, the GI50 (M14 melanoma) was 4.3 µM and the TGI (M14 melanoma) was 17.4 µM.
